Measurements: paper PMC6556873, “Rapid Covalent-Probe Discovery by Electrophile-Fragment Screening” (Journal of the American Chemical Society, 2019)
Where two headings read alike, the source gives them in different places.

Legend:
BSA = target: T1, BSA (Bos taurus, UniProt P02769); set-up: Intact protein LC/MS covalent labelling, fragments in pools of five, 200 uM each, 4 °C; settings: 24 h, 4 °C, pool of five; 200 µM; covalent
T1 construct: gene ALB

NUDT7 = target: T2, NUDT7 (Homo sapiens, UniProt P0C024); set-up: Intact protein LC/MS covalent labelling, fragments in pools of five, 200 uM each, 4 °C; settings: 24 h, 4 °C, pool of five; 200 µM; covalent
T2 construct: residues 14-235, E. coli, pNIC28-Bsa4, N-terminal His6 tag removed by TEV, construct 26672 Da
T2 sequence (P0C024 14-235): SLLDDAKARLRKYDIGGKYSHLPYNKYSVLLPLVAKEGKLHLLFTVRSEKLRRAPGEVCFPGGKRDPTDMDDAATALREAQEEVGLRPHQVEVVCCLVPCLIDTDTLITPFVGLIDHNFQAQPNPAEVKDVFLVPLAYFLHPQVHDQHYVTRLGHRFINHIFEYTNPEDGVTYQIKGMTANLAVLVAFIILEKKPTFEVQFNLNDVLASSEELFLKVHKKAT

OTUB2 (OTUB2A) = target: T3, OTUB2 (OTUB2A) (Homo sapiens, UniProt Q96DC9); set-up: Intact protein LC/MS covalent labelling, fragments in pools of five, 200 uM each, 4 °C; settings: 24 h, 4 °C, pool of five; 200 µM; covalent
T3 construct: full length residues 1-234, E. coli BL21(DE3)-R3, His tag removed by TEV, construct 27312 Da
T3 sequence (Q96DC9 1-234): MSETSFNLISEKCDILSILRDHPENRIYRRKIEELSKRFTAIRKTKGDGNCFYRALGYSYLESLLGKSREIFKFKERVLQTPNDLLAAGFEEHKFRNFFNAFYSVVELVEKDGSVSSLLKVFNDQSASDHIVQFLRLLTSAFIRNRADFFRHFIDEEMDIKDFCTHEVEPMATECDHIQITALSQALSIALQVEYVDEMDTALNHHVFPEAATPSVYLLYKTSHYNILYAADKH

PCAF = target: T4, PCAF (Homo sapiens, UniProt Q92831); set-up: Intact protein LC/MS covalent labelling, fragments in pools of five, 200 uM each, 4 °C; settings: 24 h, 4 °C, pool of five; 200 µM; covalent
T4 construct: gene KAT2B
T4 sequence (Q92831 whole entry, the tested form may be a part): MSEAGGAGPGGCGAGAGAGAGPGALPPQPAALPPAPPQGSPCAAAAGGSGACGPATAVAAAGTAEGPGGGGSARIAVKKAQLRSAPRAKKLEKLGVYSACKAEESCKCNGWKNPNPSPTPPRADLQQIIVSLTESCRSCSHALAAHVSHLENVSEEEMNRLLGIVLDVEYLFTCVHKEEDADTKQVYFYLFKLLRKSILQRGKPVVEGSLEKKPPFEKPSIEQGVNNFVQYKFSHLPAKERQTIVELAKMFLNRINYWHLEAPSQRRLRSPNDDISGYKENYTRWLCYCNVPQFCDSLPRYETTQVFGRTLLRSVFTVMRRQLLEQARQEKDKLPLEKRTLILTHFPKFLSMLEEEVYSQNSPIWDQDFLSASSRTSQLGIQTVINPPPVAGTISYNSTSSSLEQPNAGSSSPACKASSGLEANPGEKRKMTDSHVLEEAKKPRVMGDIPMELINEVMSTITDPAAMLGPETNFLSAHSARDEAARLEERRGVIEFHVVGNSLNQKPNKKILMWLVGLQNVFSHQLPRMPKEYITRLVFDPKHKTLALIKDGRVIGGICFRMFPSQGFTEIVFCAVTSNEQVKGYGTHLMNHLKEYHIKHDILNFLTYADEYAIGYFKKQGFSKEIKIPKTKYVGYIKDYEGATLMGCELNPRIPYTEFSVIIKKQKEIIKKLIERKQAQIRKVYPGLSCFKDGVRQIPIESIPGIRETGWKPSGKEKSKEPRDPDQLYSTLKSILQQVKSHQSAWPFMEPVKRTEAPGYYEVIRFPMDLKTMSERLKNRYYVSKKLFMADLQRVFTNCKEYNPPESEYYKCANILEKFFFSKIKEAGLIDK

in vitro [1] = test: in vitro; set-up: species or system CCD841, HEK293; settings: human, hb2 cells, read-out: HB-2 Cells Viability (%)
in vitro [2] = test: in vitro; set-up: species or system HB2, HEK293; settings: human, ccd841 cells
in vitro [3] = test: in vitro; set-up: species or system HB2, CCD841; settings: human, hek293 cells

T1 sequence (P02769 whole entry, the tested form may be a part): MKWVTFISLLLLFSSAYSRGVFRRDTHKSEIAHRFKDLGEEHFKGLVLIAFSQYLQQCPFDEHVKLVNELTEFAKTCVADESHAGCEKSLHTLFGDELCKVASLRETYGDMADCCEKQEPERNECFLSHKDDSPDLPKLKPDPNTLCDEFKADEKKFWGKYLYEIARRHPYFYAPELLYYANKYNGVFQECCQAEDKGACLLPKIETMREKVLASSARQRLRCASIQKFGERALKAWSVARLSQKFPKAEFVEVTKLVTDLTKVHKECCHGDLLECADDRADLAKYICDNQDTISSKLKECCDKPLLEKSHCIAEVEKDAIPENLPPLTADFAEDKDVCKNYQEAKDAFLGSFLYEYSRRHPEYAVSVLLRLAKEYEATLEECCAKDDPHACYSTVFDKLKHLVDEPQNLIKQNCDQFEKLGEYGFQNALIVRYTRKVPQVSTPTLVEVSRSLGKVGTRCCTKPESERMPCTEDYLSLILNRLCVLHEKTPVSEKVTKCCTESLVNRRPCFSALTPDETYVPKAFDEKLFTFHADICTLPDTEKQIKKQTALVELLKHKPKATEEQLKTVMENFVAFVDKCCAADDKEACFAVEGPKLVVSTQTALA

SMILES | BSA (BSA) | NUDT7 (NUDT7) | OTUB2 (OTUB2 (OTUB2A)) | PCAF (PCAF) | viability at 48 h, 10 µM (in vitro [1]) [%] | viability at 48 h, 10 µM (in vitro [2]) [%] | viability at 48 h, 10 µM (in vitro [3]) [%]
O=C(CCl)N1CCSc2ccccc21 [PCM-0102415] | 0 | 0.1 | 0.16 | 0 | 30.2 | 60.6 | 22.4
O=C(CCl)N(C1=CCCCC1)C1CC1 [PCM-0102745] | 0 | 0 | 0 | 0 | 96.2 | 88.3 | 98.7
O=C(CCl)NC1(c2ccccc2)CCC1 [PCM-0102935] | 0 | 0.29 | 0 | 0 | 81.5 | 89.7 | 53.8
O=C(CCl)NCC12CC3CC(CC(Br)(C3)C1)C2 [PCM-0102819] | 0 | 0.05 | 0.63 | 0 | 109 | 95 | 99.3
CN(C(=O)CCl)C(C)(C)C#N [PCM-0102782] | 0 | 0 | 0 | 0 | 95.9 | 92.5 | 77.7
Cc1cc(CNC(=O)CCl)ccc1F [PCM-0102305] | 0.13 | 0 | 0.59 | 0 | 85.5 | 80.7 | 57.8
O=C(CCl)NC(=O)NCC(F)(F)F [PCM-0103037] | 0 | 0 | 0.3 | 0 | 89 | 78.2 | 95.7
Cc1ccc(-n2nc(C)cc2NC(=O)CCl)cc1 [PCM-0102224] | 0 | 0 | 0.35 | 0 | 49.3 | 67.5 | 24.9
CCC(C)NC(=O)NC(=O)CCl (stereo not drawn) [PCM-0102908] | 0 | 0 | 0 | 0 | 110 | 91.8 | 88.7
CC(C)(O)CNC(=O)CCl [PCM-0102554] | 0 | 0 | 0 | 0 | 103 | 99.5 | 93.2
C=CC(=O)Nc1cccc(Cl)c1 [PCM-0102961] | 0 | 0 | 0 | 0 | 97.3 | 103 | 80.4
CCC(C)(C)NC(=O)CCl [PCM-0102161] | 0 | 0 | 0.09 | 0 | 99.3 | 100 | 116
O=C(CCl)Nc1cccnc1N1CCCC1 [PCM-0102852] | 0 | 0 | 0 | 0 | 106 | 100 | 115
COC(=O)c1ccccc1N(C)C(=O)CCl [PCM-0102589] | 0 | 0.15 | 0 | 0 | 92.1 | 89.7 | 58.9
C=CC(=O)Nc1ccnn1-c1ccccc1C [PCM-0102643] | 0 | 0.12 | 0 | 0 | 87.4 | 88.7 | 64.4
CN(Cc1ccc(Cl)cc1)C(=O)CCl [PCM-0102344] | 0 | 0.34 | 0 | 0 | 4.3 | 24 | 2.1
COC(=O)c1ccc(NC(=O)CCl)cc1 [PCM-0102204] | 0 | 0 | 0 | 0 | 22.5 | 56.2 | 3.8
C=CC(=O)N1Cc2ccccc2CC1c1nnc(CC)o1 (stereo not drawn) [PCM-0103005] | 0 | 0 | 0 | 0 | 96.8 | 79.4 | 93.2
CC(C)N1CCC(NC(=O)CCl)CC1.Cl [PCM-0102748] | 0 | 0 | 0 | 0 | 90.9 | 90.3 | 97
Cl.O=C(CCl)N1CCN(c2ncccn2)CC1 [PCM-0102093] | 0 | 0 | 0 | 0 | 57.5 | 83.3 | 63.9
CC(C)(C)N(Cc1cccc(F)c1)C(=O)CCl [PCM-0102833] | 0 | 0 | 0 | 0 | 67.5 | 25.3 | 22.2
C=CC(=O)NC1CCCCC1n1cccn1 (stereo not drawn) [PCM-0102440] | 0 | 0.08 | 0 | 0 | 91.4 | 100 | 98.5
NC(=O)c1c(NC(=O)CCl)sc2c1CCC2 [PCM-0102164] | 0 | 0.28 | 0 | 0 | 27.2 | 25.6 | 2.6
O=C(CCl)N1CCCc2cc([N+](=O)[O-])ccc21 [PCM-0102188] | 0 | 0.09 | 0.12 | 0 | 19.6 | 32.3 | 46.6
